# Earlier results as cited in patent US20070098654A1, “Nail whitening composition” (L'OREAL, priority 2005, published 2007).
# Conditions: at 20° C.
smiles,measurement,value
NC(N)=O.OO [Carbamide peroxide],Solubility in water,about 500 g/l
